Patent US8501783B2, “Conformationally restricted urea inhibitors of soluble epoxide hydrolase” (The Regents of the University of California, priority 2006, dated 2013)
Where two headings read alike, the source gives them in different places. Each block holds one compound with its values, some of them ahead of it.

How the values were obtained:
[1] = Pharmacokinetic screening in dogs, oral administration, plasma LC-MS/MS; conditions: for AUC: dog, plasma, po, 0.3 mg/kg
[2] = Solubility in oil of the dosing preparation (compound in Crisco); type: physicochemical; conditions: appearance in oil, in parentheses after compound number
Text: The dogs are fed immediately thereafter.

[3] = target: human sEH (Homo sapiens (Human), UniProt P34913); test: Inhibition of human soluble epoxide hydrolase (IC50; one of three substrate methods); type: biochemical;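 also: enzyme expressed in baculovirus and affinity-purified, assays run in triplicate, with substrate and read-out differing among the three methods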
Chain of human sEH (P34913 whole entry): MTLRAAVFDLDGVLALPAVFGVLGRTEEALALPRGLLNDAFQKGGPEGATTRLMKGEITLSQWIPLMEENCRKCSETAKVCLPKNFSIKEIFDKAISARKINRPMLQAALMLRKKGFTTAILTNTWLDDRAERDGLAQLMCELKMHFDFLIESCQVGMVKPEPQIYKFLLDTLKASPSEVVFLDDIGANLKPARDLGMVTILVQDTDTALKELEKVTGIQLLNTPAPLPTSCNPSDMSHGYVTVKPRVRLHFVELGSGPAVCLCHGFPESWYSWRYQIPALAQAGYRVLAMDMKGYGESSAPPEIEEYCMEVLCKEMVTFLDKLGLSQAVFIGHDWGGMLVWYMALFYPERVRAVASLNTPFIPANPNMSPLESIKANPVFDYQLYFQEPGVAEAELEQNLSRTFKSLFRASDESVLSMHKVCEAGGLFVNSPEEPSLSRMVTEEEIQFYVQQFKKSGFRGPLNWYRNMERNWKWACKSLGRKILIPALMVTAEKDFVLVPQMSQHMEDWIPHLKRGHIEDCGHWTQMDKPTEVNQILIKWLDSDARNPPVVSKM

AUC [1]: 0.0433 µM·h
AUCINF_D_pred ([1]; dogs, oral, dose-normalised): 8553 kg·nM·min/mg
LC/MS analysis, plasma level at time 0 ([1]; dogs, single oral dose (0.3 mg/kg per FIG. 1), time 0 min): 0.00
LC/MS analysis, plasma level at time 15 ([1]; dogs, single oral dose (0.3 mg/kg per FIG. 1), time 15 min): 0.00
LC/MS analysis, plasma level at time 30 ([1]; dogs, single oral dose (0.3 mg/kg per FIG. 1), time 30 min): 1.61
LC/MS analysis, plasma level at time 60 ([1]; dogs, single oral dose (0.3 mg/kg per FIG. 1), time 60 min): 4.82
LC/MS analysis, plasma level at time 120 ([1]; dogs, single oral dose (0.3 mg/kg per FIG. 1), time 120 min): 9.37
LC/MS analysis, plasma level at time 180 ([1]; dogs, single oral dose (0.3 mg/kg per FIG. 1), time 180 min): 10.98
LC/MS analysis, plasma level at time 240 ([1]; dogs, single oral dose (0.3 mg/kg per FIG. 1), time 240 min): 6.83
LC/MS analysis, plasma level at time 300 ([1]; dogs, single oral dose (0.3 mg/kg per FIG. 1), time 300 min): 5.62
LC/MS analysis, plasma level at time 360 ([1]; dogs, single oral dose (0.3 mg/kg per FIG. 1), time 360 min): 3.21
LC/MS analysis, plasma level at time 480 ([1]; dogs, single oral dose (0.3 mg/kg per FIG. 1), time 480 min): 1.47
solubility in oil [2]: 1606 (Suspension)
Compound: O=C(NC1CCN(C(=O)C(F)(F)F)CC1)NC12CC3CC(CC(C3)C1)C2 [Compound 1606]

IC50 ([3]; recombinant human sEH): 275 nM
AUC [1]: 0.0967 µM·h
Compound: CC(=O)N1CCC(NC(=O)CC23CC4CC(CC(C4)C2)C3)CC1 [Compound 1642]

Compound: CC(=O)N1CCC(NC(=O)NC2CCCCCC2)CC1 [Compound 1645, 1-(1-Acetyl-piperidin-4-yl)-3-cycloheptyl-urea]
IC50 [3]: 27.6 nM
AUC [1]: 3.68 µM·h

IC50 ([3]; recombinant human sEH): 1.4 nM
AUC [1]: 0.0817 µM·h
Compound: CS(=O)(=O)N1CCC(NC(=O)NC23CC4CC(CC(C4)C2)C3)CC1 [Compound 1701, 1-Adamantan-1-yl-3-(1-methanesulfonyl-piperidin-4-yl)-urea]

IC50 ([3]; recombinant human sEH): 0.9 nM
AUC [1]: 0.09 µM·h
Compound: COC(=O)N1CCC(NC(=O)NC23CC4CC(CC(C4)C2)C3)CC1 [Compound 1702, 4-(3-Adamantan-1-yl-ureido)-piperidine-1-carboxylic acid methyl ester]

IC50 ([3]; recombinant human sEH): 0.4 nM
Compound: Cc1ccc(S(=O)(=O)N2CCC(NC(=O)Nc3ccc(OC(F)(F)F)cc3)CC2)cc1 [Compound 1711, 1-[1-(Toluene-4-sulfonyl)-piperidin-4-yl]-3-(4-trifluoromethoxy-phenyl)-urea]

Compound: Morpholine-4-carboxylic acid 2-methyl-biphenyl-3-ylmethyl ester [Compound 1562]
IC50 ([3]; recombinant human sEH): 12000 nM
